{"source": "ChEMBL document CHEMBL1201862", "about": "“PubChem BioAssay data set” (2004)", "key": {"[1]": {"target": "Disintegrin and metalloproteinase domain-containing protein 17 (Homo sapiens, UniProt P78536)", "sequence (P78536 whole entry, the tested form may be a part)": "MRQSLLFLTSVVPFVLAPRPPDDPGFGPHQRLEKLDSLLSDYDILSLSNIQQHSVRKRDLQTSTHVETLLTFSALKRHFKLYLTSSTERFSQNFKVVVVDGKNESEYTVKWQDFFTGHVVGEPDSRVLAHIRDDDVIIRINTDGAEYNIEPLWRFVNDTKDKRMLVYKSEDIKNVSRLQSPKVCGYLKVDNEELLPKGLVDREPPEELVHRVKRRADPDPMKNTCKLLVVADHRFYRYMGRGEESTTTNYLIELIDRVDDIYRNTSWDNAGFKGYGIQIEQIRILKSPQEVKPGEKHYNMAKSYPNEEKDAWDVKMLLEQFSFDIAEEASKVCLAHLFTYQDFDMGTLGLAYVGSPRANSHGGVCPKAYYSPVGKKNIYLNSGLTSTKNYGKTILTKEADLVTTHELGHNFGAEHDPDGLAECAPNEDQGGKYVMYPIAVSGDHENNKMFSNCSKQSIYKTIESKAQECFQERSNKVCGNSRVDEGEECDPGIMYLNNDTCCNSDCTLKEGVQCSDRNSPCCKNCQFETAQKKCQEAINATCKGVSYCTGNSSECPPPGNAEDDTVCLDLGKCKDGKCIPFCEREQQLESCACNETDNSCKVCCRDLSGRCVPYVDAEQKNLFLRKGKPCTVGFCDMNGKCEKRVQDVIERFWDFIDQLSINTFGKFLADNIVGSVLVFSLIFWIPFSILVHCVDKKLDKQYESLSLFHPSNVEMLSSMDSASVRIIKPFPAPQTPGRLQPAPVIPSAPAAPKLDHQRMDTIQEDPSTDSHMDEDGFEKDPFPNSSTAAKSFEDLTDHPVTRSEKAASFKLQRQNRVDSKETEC", "assay": "exosite inhibitors of ADAM17, dose response, biochemical (AID 743260)"}, "[2]": {"assay": "inhibition of ADAM10 peptide cleavage – biochemical, FRET peptide substrate, recombinant human ADAM10, selectivity assay for ADAM17 exosite inhibitor project, dose response (AID 743259);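 note: ADAM10 enzyme cleaving a FRET peptide substrate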"}, "[3]": {"target": "T1, Hexokinase HKDC1 (Homo sapiens, UniProt Q2TB90)", "T1 sequence (Q2TB90 whole entry)": "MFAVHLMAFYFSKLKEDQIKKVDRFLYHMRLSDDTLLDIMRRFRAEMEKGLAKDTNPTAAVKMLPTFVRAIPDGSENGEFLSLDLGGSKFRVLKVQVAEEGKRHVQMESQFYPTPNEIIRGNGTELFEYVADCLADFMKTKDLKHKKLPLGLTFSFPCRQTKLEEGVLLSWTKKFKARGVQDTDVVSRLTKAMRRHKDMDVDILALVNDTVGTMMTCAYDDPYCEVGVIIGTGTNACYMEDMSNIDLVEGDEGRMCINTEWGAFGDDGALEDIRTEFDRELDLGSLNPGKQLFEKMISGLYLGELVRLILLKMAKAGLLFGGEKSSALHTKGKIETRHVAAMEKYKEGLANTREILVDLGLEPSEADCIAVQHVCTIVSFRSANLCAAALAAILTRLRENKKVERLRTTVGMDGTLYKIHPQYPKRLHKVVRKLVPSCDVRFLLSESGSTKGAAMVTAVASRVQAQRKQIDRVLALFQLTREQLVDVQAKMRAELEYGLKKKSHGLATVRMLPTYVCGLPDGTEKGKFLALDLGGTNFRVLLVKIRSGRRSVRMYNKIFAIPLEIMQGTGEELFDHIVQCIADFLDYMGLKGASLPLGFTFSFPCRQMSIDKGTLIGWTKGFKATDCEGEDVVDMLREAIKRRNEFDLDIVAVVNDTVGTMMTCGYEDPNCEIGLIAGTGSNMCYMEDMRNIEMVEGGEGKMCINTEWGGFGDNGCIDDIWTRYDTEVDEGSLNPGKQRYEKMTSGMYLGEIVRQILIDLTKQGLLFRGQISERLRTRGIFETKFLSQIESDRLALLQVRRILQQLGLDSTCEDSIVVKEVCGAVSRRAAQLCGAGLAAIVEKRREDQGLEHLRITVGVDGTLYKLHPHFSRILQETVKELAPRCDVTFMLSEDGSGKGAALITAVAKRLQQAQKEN", "assay": "inhibition of HKDC1 glucose phosphorylation – biochemical, W721R variant, dose response (AID 504729)", "type": "functional"}, "[4]": {"assay": "loss of viability in HepG2 cells – cell-based, CellTiter-Glo, cherry-picked, cytotoxicity control for Shn3 inhibitor project, dose response (AID 624134)", "type": "functional"}, "[5]": {"assay": "decrease of insulin promoter-GFP reporter – imaging, high-content screening, mouse beta cells (AID 1628)", "type": "functional", "conditions": "MIN6"}, "[6]": {"assay": "Shn3 3'UTR reporter signal decrease – cell-based, Clone20 osteoblasts, firefly luciferase, cherry-pick, set 2, Schnurri-3 inhibitor project, dose response (AID 720490)", "type": "functional"}, "[7]": {"assay": "reduction of Shn3 3'UTR-driven luciferase in osteoblasts – cell-based, Clone20 osteoblasts, firefly luciferase, cherry-picked, dose response (AID 624132)", "type": "functional"}, "[8]": {"assay": "non-specific 3'UTR reporter inhibition in Clone20-Shn3RL – cell-based, Renilla luciferase, cherry-picked, counter-screen for Shn3 inhibitor project, dose response (AID 624133)", "type": "functional"}, "[9]": {"assay": "MIN6 cell viability loss – mouse insulinoma, cytotoxicity control, dose response (AID 2122);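 note: confirmatory high-throughput counterscreen run to flag cytotoxic compounds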", "type": "functional"}, "[10]": {"target": "Melanocortin receptor 4 (Homo sapiens, UniProt P32245)", "sequence (P32245 whole entry)": "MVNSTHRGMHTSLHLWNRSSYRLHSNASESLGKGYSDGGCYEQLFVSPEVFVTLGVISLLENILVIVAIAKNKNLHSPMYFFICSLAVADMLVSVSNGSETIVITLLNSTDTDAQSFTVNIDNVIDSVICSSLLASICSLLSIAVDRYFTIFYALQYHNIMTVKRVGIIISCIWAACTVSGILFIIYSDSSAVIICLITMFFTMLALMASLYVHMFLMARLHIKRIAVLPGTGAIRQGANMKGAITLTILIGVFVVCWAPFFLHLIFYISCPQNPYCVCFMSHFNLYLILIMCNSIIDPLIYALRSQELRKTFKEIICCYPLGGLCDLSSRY", "type": "functional, cell-based"}, "[11]": {"target": "T2, DNA repair protein RAD52 homolog (Homo sapiens, UniProt P43351)", "T2 sequence (P43351 whole entry)": "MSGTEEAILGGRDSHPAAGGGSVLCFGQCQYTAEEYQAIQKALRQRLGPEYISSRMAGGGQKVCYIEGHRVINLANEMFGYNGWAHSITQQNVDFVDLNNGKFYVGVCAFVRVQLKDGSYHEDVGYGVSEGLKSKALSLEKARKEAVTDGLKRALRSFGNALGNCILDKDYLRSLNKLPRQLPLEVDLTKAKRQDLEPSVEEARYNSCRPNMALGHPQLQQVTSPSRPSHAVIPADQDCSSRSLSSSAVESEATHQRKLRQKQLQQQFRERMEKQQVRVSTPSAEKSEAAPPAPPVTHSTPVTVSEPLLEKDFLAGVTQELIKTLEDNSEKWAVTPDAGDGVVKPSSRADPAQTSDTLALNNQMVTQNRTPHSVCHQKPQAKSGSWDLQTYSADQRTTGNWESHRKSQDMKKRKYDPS", "type": "functional, biochemical"}, "[12]": {"target": "Paired box protein Pax-8 (Homo sapiens, UniProt Q06710)", "sequence (Q06710 whole entry)": "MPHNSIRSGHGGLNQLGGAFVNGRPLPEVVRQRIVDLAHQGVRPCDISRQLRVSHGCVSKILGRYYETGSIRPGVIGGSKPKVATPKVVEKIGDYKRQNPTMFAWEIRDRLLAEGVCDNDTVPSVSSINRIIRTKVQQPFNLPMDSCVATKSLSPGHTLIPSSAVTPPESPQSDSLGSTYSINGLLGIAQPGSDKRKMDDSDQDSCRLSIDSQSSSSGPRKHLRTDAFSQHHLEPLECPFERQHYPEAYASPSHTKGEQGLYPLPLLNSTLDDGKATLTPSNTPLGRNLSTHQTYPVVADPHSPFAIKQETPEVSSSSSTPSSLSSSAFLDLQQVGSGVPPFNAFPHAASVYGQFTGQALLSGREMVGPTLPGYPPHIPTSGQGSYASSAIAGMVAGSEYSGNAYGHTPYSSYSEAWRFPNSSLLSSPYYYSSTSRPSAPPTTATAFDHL", "assay": "PAX8 transcriptional activity inhibition in RMG-I – RMG-I cells, luciferase, cherry-pick, dose response (AID 687027);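 note: luciferase reporter driven by Pax8 target thyroperoxidase promoter measured by SteadyGlo luminescence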", "type": "functional, cell-based"}, "[13]": {"assay": "general cell-killing toxicity readout – plate reader, dry powder samples, cytotoxicity control for PAX8 inhibitor project, dose response (AID 743021)", "type": "functional, cell-based"}, "[14]": {"assay": "viability loss of HPDE-C7K cells – cell-based, fluorescence, HTS, primary screen (AID 431)", "type": "functional", "conditions": "Homo sapiens"}, "[15]": {"target": "T3, Oxysterols receptor LXR-beta (Homo sapiens, UniProt P55055)", "T3 sequence (P55055 whole entry)": "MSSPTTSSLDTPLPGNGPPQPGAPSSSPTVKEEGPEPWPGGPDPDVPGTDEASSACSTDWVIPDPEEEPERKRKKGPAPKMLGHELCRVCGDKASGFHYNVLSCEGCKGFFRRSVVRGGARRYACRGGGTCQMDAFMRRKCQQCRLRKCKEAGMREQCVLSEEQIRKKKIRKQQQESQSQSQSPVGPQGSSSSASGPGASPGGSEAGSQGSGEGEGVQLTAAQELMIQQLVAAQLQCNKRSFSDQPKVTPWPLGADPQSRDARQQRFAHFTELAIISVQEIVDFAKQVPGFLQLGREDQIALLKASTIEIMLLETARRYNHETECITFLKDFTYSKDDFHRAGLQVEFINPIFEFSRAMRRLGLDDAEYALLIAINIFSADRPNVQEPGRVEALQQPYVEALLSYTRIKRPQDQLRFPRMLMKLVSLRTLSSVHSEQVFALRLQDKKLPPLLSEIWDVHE", "assay": "LXR agonists, Gal4 luciferase reporter, dose response, counter-screen for ssDAF-12 agonist project, cell-based, luminescence, HEK293, S. stercoralis campaign (AID 720737)", "type": "functional", "conditions": "read-out: IC50 (the source's name)"}, "[16]": {"assay": "HPDE-C7 pancreatic duct cell viability loss – fluorescence, HTS (AID 430)", "type": "functional, cell-based", "conditions": "Homo sapiens"}, "[17]": {"assay": "Luminescence-based cell-based high throughput dose response assay to identify activators of the DAF-12 from the parasite S. stercoralis (ssDAF-12).", "type": "functional"}, "[18]": {"target": "T3, Oxysterols receptor LXR-beta", "type": "functional, cell-based"}, "[19]": {"assay": "cells"}, "[20]": {"assay": "cytotoxicity toward Colo320 cells – cell-based, CellTiter-Glo luminescence, IC50, dose response (AID 1117334)", "type": "functional", "conditions": "COLO 320"}, "[21]": {"assay": "RKO cell viability reduction, dose response, CellTiter-Glo luminescence (AID 1117322)", "type": "functional"}, "[22]": {"assay": "SNU-C1 cell viability reduction, dose response, CellTiter-Glo luminescence (AID 1117323)", "type": "functional, cell-based"}, "[23]": {"assay": "cytotoxicity toward HT-29 cells – cell-based, CellTiter-Glo luminescence, IC50, dose response (AID 1117330)", "type": "functional"}, "[24]": {"assay": "CellTiter-Glo luminescence survival assay, SW480 colon tumor line, concentration-response curve, half-maximal inhibitory concentration (AID 1117338)", "type": "functional"}, "[25]": {"assay": "cytotoxicity toward HCT116 cells – cell-based, CellTiter-Glo luminescence, IC50, dose response (AID 1117332)", "type": "functional", "conditions": "HCT-116"}, "[26]": {"assay": "Reduced DLD-1 viability, concentration-response, CellTiter-Glo luminescence (AID 1117352)", "type": "functional"}, "[27]": {"target": "Prothrombin (Homo sapiens, UniProt P00734)", "assay": "Thrombin 1536 HTS Dose Response Confirmation. [Related pubchem assays: 1046 (Thrombin 1536 HTS; hits were confirmed in this assay)]", "type": "functional"}}, "note": "Active and inactive are the calls of the source."}
{"smiles": "CCOC(=O)N1CCN(C(=O)C[C@H]2C[C@@]3(C(=O)OC)C(=C[C@H](C(C)C)O[C@@H]3C3CC3)N(Cc3ccc(Cl)cc3Cl)C2=O)CC1", "values": [{"measurement": "IC50", "setting": "[1]", "result": "> 69.5 µM (inactive)"}, {"measurement": "IC50", "setting": "[2]", "result": "16.4 µM (inactive)"}]}
{"smiles": "O=Cc1[nH]c2ccccc2c1N(C(=O)CCl)c1ccccc1", "values": [{"measurement": "IC50", "setting": "[3]", "result": "43.4 µM (inactive)"}]}
{"smiles": "CCN(CC)c1ccc(NC(=O)CN2C(=O)CSc3ncccc32)c(C)c1", "values": [{"measurement": "AC50", "setting": "[4]", "result": "31.9 µM (active)"}, {"measurement": "IC50", "setting": "[5]", "result": "1.33 µM (active)"}, {"measurement": "AC50", "setting": "[6]", "result": "2.17 µM (active)"}, {"measurement": "AC50", "setting": "[7]", "result": "1.78 µM (active)"}, {"measurement": "AC50", "setting": "[8]", "result": "10.2 µM (active)"}, {"measurement": "IC50", "setting": "[9]", "result": "0.713 µM (active)"}]}
{"smiles": "CCc1ccc(NC(=O)CO/N=C(\\C)c2cc3ccccc3o2)cc1", "values": [{"measurement": "IC50", "setting": "[1]", "result": "> 69.5 µM (inactive)"}, {"measurement": "IC50", "setting": "[2]", "result": "> 69.5 µM (inactive)"}]}
{"smiles": "CN(C)CCNC(=O)c1cccc(-c2cnc3c(NC=O)cc(-c4cccc(C(F)(F)F)c4)cn23)c1", "values": [{"measurement": "EC50", "setting": "[10]", "result": "> 89.2 µM (inactive)"}, {"measurement": "AC50", "setting": "[11]", "result": "2.4 µM (active)"}, {"measurement": "AC50", "setting": "[12]", "result": "9.07 µM (active)"}, {"measurement": "AC50", "setting": "[13]", "result": "54.8 µM (active)"}]}
{"smiles": "Cc1ccc2nc(-c3ccccc3)cc(O)c2c1", "values": [{"measurement": "EC50", "setting": "[14]", "result": "1.14 µM (active)"}, {"measurement": "EC50", "setting": "[15]", "result": "> 67.5 µM (inactive)"}, {"measurement": "EC50", "setting": "[16]", "result": "0.91 µM (active)"}, {"measurement": "IC50", "setting": "[17]", "result": "> 67.5 µM (inactive)"}]}
{"smiles": "COc1ccc2c(=O)c(-c3nc(C)cs3)coc2c1", "values": [{"measurement": "EC50", "setting": "[18]", "result": "> 67.5 µM (inactive)"}, {"measurement": "EC50", "setting": "[19]", "result": "> 67.5 µM (inactive)"}]}
{"smiles": "CC(C)=CC1C(C(=O)OCN2C(=O)C3=C(CCCC3)C2=O)C1(C)C", "note": "(centres undefined) [TETRAMETHRIN]", "values": [{"measurement": "IC50", "setting": "[20]", "result": "> 20 µM (inactive)"}, {"measurement": "IC50", "setting": "[21]", "result": "> 20 µM (inactive)"}, {"measurement": "IC50", "setting": "[22]", "result": "> 20 µM (inactive)"}, {"measurement": "IC50", "setting": "[23]", "result": "> 20 µM (inactive)"}, {"measurement": "IC50", "setting": "[24]", "result": "> 20 µM (inactive)"}, {"measurement": "IC50", "setting": "[25]", "result": "> 20 µM (inactive)"}, {"measurement": "IC50", "setting": "[26]", "result": "> 20 µM (inactive)"}]}
{"smiles": "C#CCOCCOCCOCCNc1nc(N2CCN(C(=O)Cn3cc(CC(C)O)nn3)CC2)nc(N2CCN(C(=O)[C@H](C)n3cc(CCCN=C(N)N)nn3)CC2)n1", "note": "(some centres undefined)", "values": [{"measurement": "IC50", "setting": "[27]", "result": "6.8 µM (active)"}]}
